Assay results as given in the Deep4Chem optical property database.
Blank lines part the entries; values can stand above or below the compound they belong to.

Assay: solvent given as SMILES

fluorescence lifetime (in C1CCCCC1): 3.1 ns | fluorescence lifetime (in c1ccccc1): 0.63 ns
Structure (SMILES): CNc1ccc2c(c1)C(=O)c1ccccc1-2

fluorescence lifetime (in ClCCl): 6.2 ns
Structure (SMILES): CC1=C(c2ccccc2)C(C)=[N+]2C1=C(c1c(-c3ccccn3)nc3ccccn13)c1c(C)cc(C)n1[B-]2(F)F

fluorescence lifetime (in CC#N): 1.83 ns
Structure (SMILES): C(=C\c1nc2c3ccccc3c3ccccc3c2o1)/c1ccccc1

Structure (SMILES): CC\C=C/C=C/C=C/C=C\CCCCCCCC(=O)O
fluorescence lifetime (in C1COCCO1): 3.2 ns | fluorescence lifetime (in CCCCCC): 4.5 ns | fluorescence lifetime (in CCCCCCCCCC): 5.2 ns | fluorescence lifetime (in CCCCO): 2.5 ns | fluorescence lifetime (in CCOCC): 5.1 ns | fluorescence lifetime (in CO): 1.3 ns | fluorescence lifetime (in ClC(Cl)Cl): 1.5 ns

fluorescence lifetime (in CCOC(C)=O): 3.5 ns | fluorescence lifetime (in CS(C)=O): 4 ns
Structure (SMILES): COc1nc(Nc2ccc3c4cccc5cccc(c6cccc2c63)c54)nc(OC)n1

Structure (SMILES): c1ccc(-c2nc(-c3ccccc3)nc(-c3cc(-n4c5ccccc5c5ncccc54)cc(-n4c5ccccc5c5ncccc54)c3)n2)cc1
fluorescence lifetime (in O=P(c1ccccc1)(c1ccccc1)c1ccc2oc3ccc(P(=O)(c4ccccc4)c4ccccc4)cc3c2c1): 6.6 ns

fluorescence lifetime (in CC#N): 0.5 ns
Structure (SMILES): COc1ccc(/C=C/c2ccccc2)cc1OC

Structure (SMILES): Fc1c(F)c(-n2c3ccccc3c3ccccc32)c(F)c(F)c1-c1nnc(-c2ccccc2)o1
fluorescence lifetime (in Cc1ccccc1): 6.7 ns

fluorescence lifetime (in ClCCl): 2.75 ns
Structure (SMILES): Oc1ccccc1-c1nc2c(c3c1-c1ccccc1CC3)-c1ccccc1CC2

Structure (SMILES): Cc1ccc(-c2c3ccc([nH]3)c3nc(c(-c4ccc(C#N)cc4)c4ccc([nH]4)c4ccc([nH]4)c(-c4ccc(C)cc4)c4ccc2o4)C=C3)cc1
fluorescence lifetime (in C1CCOC1): 5.26 ns | fluorescence lifetime (in Cc1ccccc1): 4.39 ns | fluorescence lifetime (in c1ccccc1): 5.94 ns

fluorescence lifetime (in CC#N): 0.39 ns | fluorescence lifetime (in CCCCCC): 0.34 ns
Structure (SMILES): C(=C\c1ccc(Nc2ccccc2)cc1)/c1ccccc1

fluorescence lifetime (in C1CCOC1): 0.64 ns | fluorescence lifetime (in CCCCCC): 5.4 ns | fluorescence lifetime (in c1ccccc1): 2.14 ns
Structure (SMILES): O=C1OC(=O)c2ccc(N(c3ccccc3)c3c4ccccc4cc4ccccc34)c3cccc1c23

fluorescence lifetime (in C1CCCCC1): 4 ns | fluorescence lifetime (in CC#N): 5.4 ns | fluorescence lifetime (in CO): 3.1 ns | fluorescence lifetime (in O): 4.4 ns
Structure (SMILES): Nc1ccc2cn[nH]c2c1

fluorescence lifetime (in C1CCOC1): 8.8 ns | fluorescence lifetime (in CN(C)C=O): 5.7 ns
Structure (SMILES): O=C(O)c1c2ccccc2c(C(=O)O)c2ccccc12

Structure (SMILES): Fc1c(-n2c3ccccc3c3ccccc32)c(F)c(-n2c3ccccc3c3ccccc32)c(-c2nnc(-c3ccccc3)o2)c1-n1c2ccccc2c2ccccc21
fluorescence lifetime (in Cc1ccccc1): 3.9 ns

Structure (SMILES): Cc1cc(C)n2c1C=C1c3ccccc3C(c3ccc[nH]3)=[N+]1[B-]2(F)F
fluorescence lifetime (in C1CCOC1): 7.36 ns | fluorescence lifetime (in CC#N): 7.41 ns | fluorescence lifetime (in CCCCCC): 7.93 ns | fluorescence lifetime (in CO): 7.47 ns | fluorescence lifetime (in Cc1ccccc1): 6.82 ns | fluorescence lifetime (in ClCCl): 7.28 ns

fluorescence lifetime (in CC#N): 5.45 ns | fluorescence lifetime (in CCO): 5.31 ns | fluorescence lifetime (in O): 5.23 ns
Structure (SMILES): CC1=CC2=Nc3nc(C)[n+](C)cc3CN2C=C1

fluorescence lifetime (in ClCCl): 1.22 ns
Structure (SMILES): CCCCCCOc1cc(/C=C/c2cc(OCCCCCC)c(/C=C/c3cc(OCCCCCC)c(C=C4C(=O)c5ccccc5C4=O)cc3OCCCCCC)cc2OCCCCCC)c(OCCCCCC)cc1C=C1C(=O)c2ccccc2C1=O

fluorescence lifetime (in ClC(Cl)Cl): 6.55 ns
Structure (SMILES): COc1ccc(N(c2ccc(OC)cc2)c2ccc(-c3ccc(-c4ccc(-c5cccs5)c5nsnc45)s3)cc2)cc1

Structure (SMILES): O=C(O)c1ccc2ccc3cccc4ccc1c2c34
fluorescence lifetime (in C1CCOC1): 10.6 ns | fluorescence lifetime (in CC#N): 9 ns | fluorescence lifetime (in CCCCCC): 8.68 ns | fluorescence lifetime (in CCO): 7.78 ns | fluorescence lifetime (in CN(C)C=O): 8.43 ns | fluorescence lifetime (in CO): 15.5 ns | fluorescence lifetime (in Cc1ccccc1): 7.14 ns | fluorescence lifetime (in ClCCl): 5.12 ns

Structure (SMILES): O=C1c2ccc(N(c3ccc(-c4ccccc4)cc3)c3ccc(-c4ccccc4)cc3)cc2C(=O)c2ccc(N(c3ccc(-c4ccccc4)cc3)c3ccc(-c4ccccc4)cc3)cc21
fluorescence lifetime (in Cc1ccccc1): 3.5 ns | fluorescence lifetime (in c1ccc2c(c1)c1ccccc1n2-c1ccc(-c2ccc(-n3c4ccccc4c4ccccc43)cc2)cc1): 5.6 ns

fluorescence lifetime (in C1CCCCC1): 4.7 ns
Structure (SMILES): c1cc2cccc3c4cccc5cccc(c(c1)c23)c54

Structure (SMILES): COc1ccc(-c2nc3ccccc3nc2/C=C/N2CCCC2)s1
fluorescence lifetime (in C1CCCCC1): 0.79 ns | fluorescence lifetime (in C1CCOC1): 2.79 ns | fluorescence lifetime (in CC#N): 5.78 ns | fluorescence lifetime (in CC(C)=O): 5.1 ns | fluorescence lifetime (in CCO): 0.67 ns | fluorescence lifetime (in CO): 0.22 ns | fluorescence lifetime (in CS(C)=O): 4.88 ns | fluorescence lifetime (in Cc1ccccc1): 1.25 ns | fluorescence lifetime (in ClCCl): 3.28 ns

fluorescence lifetime (in CCCCCCCCO): 0.64 ns | fluorescence lifetime (in CCO): 0.06 ns | fluorescence lifetime (in CO): 0.04 ns | fluorescence lifetime (in ClC(Cl)Cl): 0.64 ns | fluorescence lifetime (in ClCCl): 0.32 ns
Structure (SMILES): CN(C)c1ccc(/C=C/c2cc[n+](Cc3cc(C[n+]4ccc(/C=C/c5ccc(N(C)C)cc5)cc4)cc(C[n+]4ccc(/C=C/c5ccc(N(C)C)cc5)cc4)c3)cc2)cc1

fluorescence lifetime (in C1CCOC1): 8.98 ns | fluorescence lifetime (in CO): 15.1 ns
Structure (SMILES): CCOC(=O)C1=CN(c2ccccc2)C=C(C(=O)OCC)C1c1ccccc1

fluorescence lifetime (in C1CCOC1): 2.32 ns
Structure (SMILES): CCn1c2ccccc2c2cc(C#Cc3cc(C#Cc4ccc5c(c4)c4ccccc4n5CC)ncn3)ccc21

fluorescence lifetime (in CC#N): 0.0001 ns
Structure (SMILES): Cn1ccc(=O)n(C)c1=O

fluorescence lifetime (in CS(C)=O): 5.5 ns
Structure (SMILES): CCCCCCCCCCCCOc1cc2cc(N(C)C)ccc2cc1C#N

fluorescence lifetime (in CC#N): 0.43 ns | fluorescence lifetime (in CCCCCC): 0.34 ns
Structure (SMILES): C(=C\c1ccc2ccccc2c1)/c1ccc(Nc2ccccc2)cc1
